Data from patent US20180185476A1, “METHODS AND PHARMACEUTICAL COMPOSITIONS FOR INHIBITING LYMPHOCYTE PROLIFERATION IN A SUBJECT IN NEED THEREOF” (INSERM (Institut National de la Sante et de la Recherche …, priority 2013, published 2018).
“Also recorded” adds a separate entry of the source.

Assays:
CTPS1-deficient cells = experiment: Proliferation and CD25 expression of CTPS1-deficient T cells after addition of nucleotides or nucleosides; assay type: cell-based, human; details: addition of nucleotides or nucleosides before stimulation
From the text: (§1) Informed consent was obtained from donors, patients and families of patients. The study and protocols conform to the 1975 declaration of Helsinki as well as to local legislation and ethical guidelines. Genomic DNA extracted from peripheral blood cells was used for whole exome sequencing (Illumina) and sequencing of CTPS1. PBMCs were Ficoll-purified and activated with phytohemagglutinin (PHA) for 3 days, and then cultured in RPMI medium supplemented with 5% type AB human serum and IL-2 (100 UI/ml). T-cell blasts were restimulated with various mitogens and analyzed for memory and activation markers, calcium flux, cytokine secretions, apoptosis and TCR-CD3 signaling cascade molecules by immunoblotting. CTPS1 protein was detected by immunoblotting with an antibody raised against residues in the middle of the protein (341 to 355) (#SAB111071, Sigma). […] Proliferation was assessed after 96 hours by monitoring the dilution of CellTrace violet dye labelling. Cell cycle was determined by measuring the incorporation of EdU into newly synthesized DNA during 40 hours. The division indexes were calculated with the Flowjo software (BD Biosciences). For gene silencing of CTPS1 by shRNA expression (Openbiosystems), cells were transduced at day 3 of PHA stimulation. For rescue experiments, CTPS1-deficient cells were transduced with a lentiviral vector (Invitrogen) containing the CTPS1 gene and proliferation was performed 5 days after transduction. In long-term expansions, cells were repeatedly stimulated with CD3/CD28-coated beads every 48 h and the transduced GFP^+ cells in the cultures were determined by every 24 h. The intracellular content of nucleotides was measured by liquid chromatography-mass spectrometry (UPLC-xevoTQS, Waters). P values were calculated by two-tailed Student's t-test using PRISM software (GraphPad).

control T-cells = experiment: T-cell proliferation in response to CD3 activation (CellTrace violet dye dilution); assay type: cell-based, human; details: nucleotide added to deazauridine-treated control T cells
From the text: as §1, with “For gene silencing of CTPS1 by shRNA expression (Openbiosystems), cells were transduced at day 3 of PHA stimulation. For rescue experiments, CTPS1-deficient cells were transduced with a lentiviral vector (Invitrogen) containing the CTPS1 gene and proliferation was performed 5 days after transduction.” left out, “The intracellular content of nucleotides was measured by liquid chromatography-mass spectrometry (UPLC-xevoTQS, Waters). P values were calculated by two-tailed Student's t-test using PRISM software (GraphPad).” left out

| Compound | CD25 expression of CTPS1-deficient cells (CTPS1-deficient cells) | proliferation of CTPS1-deficient cells (CTPS1-deficient cells) | reversion of the inhibition of T-cell proliferation by deazauridine (control T-cells) |
| --- | --- | --- | --- |
| Nc1ccn([C@@H]2O[C@H](COP(=O)(O)OP(=O)(O)OP(=O)(O)O)[C@@H](O)[C@H]2O)c(=O)n1 [CTP, cytidine nucleotide triphosphate] | recovered to a normal level | recovered to a normal level; also recorded: restored to normal level | fully reverted |
| O=c1ccn([C@@H]2O[C@H](COP(=O)(O)OP(=O)(O)OP(=O)(O)O)[C@@H](O)[C@H]2O)c(=O)[nH]1 [UTP] | – | – | partially |
| Nc1ccn([C@@H]2O[C@H](CO)[C@@H](O)[C@H]2O)c(=O)n1 [cytidine] | recovered to a normal level | recovered to a normal level; also recorded: restored | – |
